“Also recorded” adds a separate entry of the source. No end group written: not given here.
Tests used:
[1] = tested on: collagen; test: Collagen stimulation, ELISA on fibroblast cell lines; format: cell-based
Method: Fibroblast cell lines were cultured under standard conditions and assayed for collagen and laminin using an ELISA system manufactured by Panvera (Madison, Wis.). Antibodies for collagen and laminin manufactured by Takara Shuzo Co., Ltd Japan. […] The other three peptides tested neither stimulated nor inhibited production (i.e. no effect was observed).

[2] = tested on: human red blood cells (RBC); test: in vitro; format: cell-based; settings: hemolytic assay, concentration at 50% hemolysis, 1 hour at 37° C.
[3] = tested on: E. coli UB1005; format: cell-based, Escherichia coli; settings: mean of three; 16 to 20 hours at 35° C.; in µg/mL
[4] = tested on: P. aeruginosa H374; format: cell-based, Pseudomonas aeruginosa; settings: mean of three; 16 to 20 hours at 35° C.
[5] = tested on: S. pneumoniae C719; test: Antimicrobial assays II, NCCLS broth microdilution MIC; format: cell-based, Streptococcus pneumoniae; settings: mean of three, in µg/mL
[6] = tested on: hairless rat skin burn wound; test: In vivo wound healing, TCA chemically induced skin burn wound; settings: for Epidermal thickening / Fibroblast cells in test area / Inflammatory response area / Leukocyte cells in test area / Wound closure: rat model, TCA burn treated by peptide; for Wound closure: 26 days
From the text: The hairless rat was chosen as a suitable test model. Female hairless rats of 100 to 150 grams weight and 8 to 12 weeks age were used in the study.
As an alternative, 70% trichloroacetic (TCA) dissolved in 70% ethanol was employed to induce the dermal erosion patches. […] As the chemical burn agent, the TCA treatment inflicted on the rats far less trauma and mortality than occurred with the Phenol model.
The experimental Protocol procedure steps were as follows: • 1. The animal was anesthetized (40 mg/kg Phenobarbital). • 2. Color photographs of the animal's back (with six separate peels) were taken before each treatment and daily thereafter. • 3. Rat skin surface was prepared by wiping with 70% ethanol. Filter paper discs (1.1 cm diameter) were soaked in 70% TCA/ethanol. • 4. The discs were placed on the back of the hairless rat for 30 minutes [6 disks providing for 2 control (no peptide treatment) disks and 4 disks for peels to receive peptide treatment.] • 5. After a 30 minute burn the discs were removed. Twenty four hours later, different peptide solutions (1500 ppm in saline) were applied to four peels, and saline was applied to the two control peels. • 6. Peptide solutions (and saline for the controls) were applied to the six wounds with a soft brush each day thereafter. • 7. It took approximately one month for the wounds to heal (complete skin closure with stabilized epidermis), after which the animal was sacrificed. • 8. The treated skin was harvested, section stained with trichrome, and mounted on slides.
The percentage of wound closure for each peel (six sites) was measured each day until the animal was sacrificed. The percentage closure was determined by measuring on the animal photographs the area of the remaining scab relative to the area of the initial scar after the burn. These measurements were made by digitizing and analyzing the peels using the Sigma Plot ProScan 4 program.
This provided a measure of the post-TCA burn treatment of the inflammatory response in each peel site.
The extent of epidermal thickening (hyperkeratosis) at each site was also determined by measurement with the Sigma Plot program applied to the stained section slides of the various wound areas and the normal untreated skin (control) surrounding the peels. At magnifications of 100× to 320×, the microphotographs of the color slides provided a powerful tool for such quantification of the extent of hyperkeratosis evident in each peel.
Treatment of the section slides with selective stains produced identifiable evidence of the presence of both leukocyte and fibroblast cells in the wound areas. This was also quantified by the Sigma Plot program.
The above described animal model and protocols were employed in the testing of approximately 20 of the peptides listed in Table 48 (and other peptides for comparison) as preferred FLAK peptides for wound healing.

[7] = tested on: S. pneumoniae C718; test: Antimicrobial assays II, NCCLS broth microdilution MIC; format: cell-based, Streptococcus pneumoniae; settings: mean of three
[8] = tested on: S. aureus (MRSA); format: cell-based, Staphylococcus aureus; settings: mean of three; 16 to 20 hours at 35° C.

| Substance | Collagen stimulation [1] [%] | LD50 [2] | E. coli UB1005 MIC [3] | P. aeruginosa H374 MIC [4] [µg/mL] | S. pneumoniae MIC [5] | rate of wound closure ([6]; hairless rat, full wound closure at 26 days) | ability to limit post-TCA burn inflammatory responses ([6]; hairless rat, peptide solutions 1500 ppm in saline, topical daily) | hyperkeratosis (epidermal thickening) ([6]; hairless rat, peptide solutions 1500 ppm in saline, topical daily, listed as SEQ ID NO:115) | Epidermal thickening [6] | Fibroblast cells in test area [6] | Inflammatory response area [6] | Leukocyte cells in test area [6] | Wound closure [6] | S. pneumoniae MIC [7] [µg/mL] | S. aureus (MRSA) MIC [8] [µg/mL] |
| --- | --- | --- | --- | --- | --- | --- | --- | --- | --- | --- | --- | --- | --- | --- | --- |
| MPKWKVFKKIEKVGRNIRNGIVKAGPAIAVLGEAKALG-NH2 [P12, reference compound] | 0 | > (> indicates greater than 1000) | 1 | 8 | – | – | – | – | – | – | – | – | – | – | – |
| FALKALKKLKKALKKAL-NH2 [P153] | 120 | – | – | – | 8 | small advantage in rate of wound closure over the other peptides and no peptide | superior in this respect | lowest evidence of hyperkeratosis (epidermal thickening); also recorded: substantially no hyperkeratosis as compared to the TCA burn untreated control | 25 % of control (TCA only) | 350 % of normal skin | 7 % of healed scar | 235 % of normal skin | 99.1 % of initial wound | 32 | 16 |
| FAVGLRAIKRALKKLRRGVRKVAKDL-NH2 [P157, reference compound] | – | – | 8 | 8 | 16 | – | – | – | 80 % of control (TCA only) | 450 % of normal skin | 25 % of healed scar | 265 % of normal skin | 95.2 % of initial wound | 128 | 32 |

Source: patent US20050209157A1, “Short bioactive peptides and methods for their use” (priority 2001, published 2005)
